{"source": "patent US8673370B2", "about": "“Method of improving cardiovascular health” (.Kemin Foods, L.C., priority 2006, dated 2014)", "format_in_all_cases": "in vivo, rat", "key": {"normotensive (WKY) rats [1]": {"tested_on": "normotensive (WKY) rats", "assay": "Heart rate (HR), daily for 14 days, in conscious catheterized normotensive rats", "protocol": "(§1) Additionally, daily soy isoflavone (SoyLife®, Acatris, Minneapolis, Minn.) supplementation was administered with BCX to both normotensive (WKY) and spontaneously hypertensive (SHR) rats to determine any beneficial hemodynamic contributions of soy to genetic hypertension. Animals receiving daily oral doses of BCX or BCX combined with the soy extract and comparisons of specific hemodynamic parameters (heart rate and blood pressure) were monitored for a period of two weeks in SHR rats and their genetically WKY counterparts. Plasma hydrogen peroxide concentrations were evaluated and show the effects of BCX on reactive oxygen species and their purported contribution to elevations in blood pressure in this hypertensive animal paradigm (Wilcox C. S., Reactive oxygen species: roles in blood pressure and kidney function. Curr Hypertens Rep. 2002 April; 4(2):160-6).\n(§2) 1. Three days prior to the beginning of experiments, femoral arterial and venous catheters were implanted for the measurement of blood pressure and heart rate and for the collection of blood samples for the analysis of plasma CRP and cholesterol. Animals were housed in metabolic cages for chronic daily analysis for the remainder of the protocol.\n(§3) SHR and WKY rats (Harlan, Indianapolis, Ind.) at age 10 weeks and weighing ˜250 g were used as experimental subjects and monitored for a two week period. All experimental protocols were performed in conscious, unrestrained animals. The animals were individually housed in wire mesh cages in temperature-controlled rooms (23° C.) with a 12-hour light/dark cycle. Each animal was allowed free access to isoflavone reduced chow (Harlan, Indianapolis, Ind.) and distilled water throughout the protocol(s). In addition to ad libitum food and water, animals were dosed daily by oral gavage with BCX (1.0 mg/kg, in safflower oil) or BCX+soy (1.0 mg BCX/kg+80 mg isoflavones/kg, in safflower oil). […]"}, "normotensive (WKY) rats [2]": {"tested_on": "normotensive (WKY) rats", "assay": "Mean arterial pressure (MAP), daily for 14 days, in conscious catheterized normotensive rats", "settings": "for Blood pressure, Significance, comparison over 14 days: WKY rats", "protocol": "as §1, §2, §3"}, "[3]": {"tested_on": "spontaneously hypertensive (SHR) rats", "assay": "Mean arterial pressure (MAP), daily for 14 days, in conscious catheterized hypertensive rats", "protocol": "as §1, §2\n(§4) SHR and WKY rats (Harlan, Indianapolis, Ind.) at age 10 weeks and weighing ˜250 g were used as experimental subjects and monitored for a two week period. All experimental protocols were performed in conscious, unrestrained animals. The animals were individually housed in wire mesh cages in temperature-controlled rooms (23° C.) with a 12-hour light/dark cycle. Each animal was allowed free access to isoflavone reduced chow (Harlan, Indianapolis, Ind.) and distilled water throughout the protocol(s). In addition to ad libitum food and water, animals were dosed daily by oral gavage with BCX (1.0 mg/kg, in safflower oil) or BCX+soy (1.0 mg BCX/kg+80 mg isoflavones/kg, in safflower oil). BCX dosage levels were based on the amount of BCX humans consume when eating according to the Dietary Guidelines for Americans: 0.5-1.0 mg per day (United States Department of Health and Human Services and United States Department of Agriculture. Dietary Guidelines for Americans 2005. Jan. 12, 2005. http://www.healthierus.gov/dietaryguidelines/; Centers for Disease Control and Prevention. National Center for Health Statistics. National Health and Nutrition Examination Survey Data 2001-2002. http://www.cdc.gov/nchs/about/major/nhanes/nhanes01-02.htm).\nAll surgical procedures were performed in animals anesthetized with sodium pentobarbital (Nembutal®, Abbott Laboratories) at a dose of 50 mg/kg, i.p. In addition, all surgery was performed under sterile conditions in a location in the laboratory dedicated for that purpose and according to those procedures adopted by the IACUC at Des Moines University-Osteopathic Medical Center. The implantations of femoral arterial and venous catheters were performed three days prior to any experimentation. The arterial and venous catheters were constructed from silicone and Tygon® tubing (Saint-Gobain Performance Plastics Corporation). The smaller silicone tubing was placed within the vessel, via the external iliac artery, to minimize tissue irritation and reaction. Normal body temperature was maintained during anesthesia via an electronically maintained dermal pad. The animals were shaved at the top of the head, back of the neck and the inner left leg. The silicone tips were inserted through a 3.0 cm incision made on the inner left leg for cannulation of the internal iliac vein and femoral artery; the arterial catheter was sutured to the leg in a manner preventing occlusion of the catheter during normal rat movement. Excess catheter was directed subcutaneously and externalized through a 2.5 cm incision made in the dermis overlying bregma. The cranial incision was made with a scalpel after which three 0.19″ jeweler's screws were attached to the cranium in a 1.0 cm^2 area which encompasses bregma. […]"}, "[4]": {"tested_on": "spontaneously hypertensive (SHR) rats", "assay": "Heart rate (HR), daily for 14 days, in conscious catheterized hypertensive rats", "settings": "for Effect on heart rate (in words): vs. control fed food only (SHR-Control)", "protocol": "as §1, §2, §4\nAll surgical procedures were performed in animals anesthetized with sodium pentobarbital (Nembutal®, Abbott Laboratories) at a dose of 50 mg/kg, i.p. In addition, all surgery was performed under sterile conditions in a location in the laboratory dedicated for that purpose and according to those procedures adopted by the IACUC at Des Moines University-Osteopathic Medical Center. The implantations of femoral arterial and venous catheters were performed three days prior to any experimentation. The arterial and venous catheters were constructed from silicone and Tygon® tubing (Saint-Gobain Performance Plastics Corporation). The smaller silicone tubing was placed within the vessel, via the external iliac artery, to minimize tissue irritation and reaction. Normal body temperature was maintained during anesthesia via an electronically maintained dermal pad. The animals were shaved at the top of the head, back of the neck and the inner left leg. […]"}, "[5]": {"settings": "vs. WKY-Saff (safflower oil only)"}, "[6]": {"settings": "vs. SHR-Control (rat chow only)"}, "[7]": {"settings": "vs. SHR-Saff (safflower oil only)"}}}
{"smiles": "CC1=C(/C=C/C(C)=C/C=C/C(C)=C/C=C/C=C(C)/C=C/C=C(C)/C=C/C2=C(C)C[C@@H](O)CC2(C)C)C(C)(C)CCC1", "note": "[BCX, β-cryptoxanthin]", "values": [{"measurement": "Effect on heart rate (in words)", "setting": "normotensive (WKY) rats [1]; vs. WKY-Control", "result": "statistical decrease in heart rate"}, {"measurement": "Heart rate, Significance, comparison over 14 days", "setting": "normotensive (WKY) rats [1]; vs. WKY-Control", "result": "Yes"}, {"measurement": "Heart rate, Significance, comparison over 14 days", "setting": "normotensive (WKY) rats [1]; [5]", "result": "No"}, {"measurement": "Change in blood pressure (in words)", "setting": "normotensive (WKY) rats [2]; WKY normotensive rats, over 14 days of supplementation", "result": "did not show any significant blood pressure change"}, {"measurement": "Blood pressure, Significance, comparison over 14 days", "setting": "normotensive (WKY) rats [2]; vs. WKY-Control", "result": "No"}, {"measurement": "Blood pressure, Significance, comparison over 14 days", "setting": "normotensive (WKY) rats [2]; [5]", "result": "No"}, {"measurement": "Days with statistically significant difference in blood pressure", "setting": "[3]; vs. SHR controls, p<0.05", "result": "4 to 13", "unit": "days"}, {"measurement": "Blood pressure, Significance, comparison over 14 days", "setting": "[3]; [6]", "result": "Yes"}, {"measurement": "Blood pressure, Significance, comparison over 14 days", "setting": "[3]; [7]", "result": "No"}, {"measurement": "Effect on mean arterial pressure / blood pressure (in words)", "setting": "[3]; vs. control fed food only (SHR-Control)", "result": "statistically decreased the blood pressure"}, {"measurement": "Effect on mean arterial pressure / blood pressure (in words)", "setting": "[3]; vs. control fed food only (SHR-Control), listed as β-cryptoxanthin", "result": "significantly lower"}, {"measurement": "Effect on mean arterial pressure / blood pressure (in words)", "setting": "[3]; vs. safflower oil control (SHR-Saff)", "result": "significantly lower"}, {"measurement": "Heart rate, Significance, comparison over 14 days", "setting": "[4]; [6]", "result": "Yes"}, {"measurement": "Days with statistically significant lower heart rate", "setting": "[4]; vs. SHR-Control, p<0.05", "result": "6 to 13", "unit": "days"}, {"measurement": "Heart rate, Significance, comparison over 14 days", "setting": "[4]; [7]", "result": "No"}, {"measurement": "Effect on heart rate (in words)", "setting": "[4]", "result": "statistically decreased the heart rate"}, {"measurement": "Effect on heart rate (in words)", "setting": "[4]; listed as β-cryptoxanthin", "result": "significantly lower"}]}
